# From BindingDB's records for doi:10.1021/jm00367a006 (1984)
# Biological target: dopamine D1 receptor (Rattus norvegicus)
# Experiment: Effective concentration that gives maximal stimulation of cyclic AMP production over the concentration range tested.
row,SMILES,EC50
1,CN1Cc2c(N)cccc2[C@H](c2ccc(O)c(O)c2)C1,1870 nM
2,"CN1Cc2c(N)cccc2C(c2ccc(O)c(O)c2)C1 (configuration not stated) [4-(8-Amino-2-methyl-1,2,3,4-tetrahydro-isoquinolin-4-yl)-benzene-1,2-diol]",2880 nM
